Source: US8022102B2, “Unsaturated tetracyclic tetrahydrofuran derivatives” (Janssen Pharmaceutica, NV, priority 2004, dated 2011)
Where two headings read alike, the source gives them in different places.

Experiments:
[1] = molecular target: T1, human cloned 5-HT2C receptor (Homo sapiens, UniProt P28335); test: In vitro binding affinity for 5-HT2C receptor (radioligand binding); settings: read-out: h-5HT2C (converted)
T1 construct: expressed in transfected cells; host or cells: CHO cells
T1 sequence (P28335 33-458): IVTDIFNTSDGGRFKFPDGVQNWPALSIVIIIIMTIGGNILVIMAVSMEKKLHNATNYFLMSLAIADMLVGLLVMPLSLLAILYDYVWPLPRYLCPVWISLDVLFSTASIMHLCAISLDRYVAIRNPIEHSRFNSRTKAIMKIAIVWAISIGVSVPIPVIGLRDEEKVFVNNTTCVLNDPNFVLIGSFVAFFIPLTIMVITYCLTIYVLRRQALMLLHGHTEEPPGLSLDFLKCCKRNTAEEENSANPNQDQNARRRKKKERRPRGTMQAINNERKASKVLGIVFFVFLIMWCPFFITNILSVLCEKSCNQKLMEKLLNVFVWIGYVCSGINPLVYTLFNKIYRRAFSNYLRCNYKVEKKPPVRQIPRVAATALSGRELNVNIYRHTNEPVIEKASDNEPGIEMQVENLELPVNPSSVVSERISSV
Experimental: (§1) During the incubation, the radioligands bind to the receptor. When equilibrium of binding is reached, the receptor bound radioactivity is separated from the non-bound radioactivity, and the receptor bound activity is counted. The interaction of the test compounds with the receptors is assessed in competition binding experiments. Various concentrations of the test compound are added to the incubation mixture containing the tissue preparation and the radioligand. Binding of the radioligand will be inhibited by the test compound in proportion to its binding affinity and its concentration.

[2] = molecular target: T2, human cloned 5-HT2A receptor (Homo sapiens, UniProt P28223); test: In vitro binding affinity for 5-HT2A receptor (radioligand binding); settings: read-out: h-5HT2A (converted)
T2 construct: expressed in transfected cells; host or cells: L929 cells
Experimental: as §1, with “concentration. The affinities of the compounds for the 5-HT2 receptors were measured by means of radioligand binding studies conducted with: (a) human cloned 5-HT2A receptor, expressed in L929 cells using [^125I]R91150 as radioligand and (b) human cloned 5-HT2C receptor, expressed in CHO cells using [^3H]mesulergine as radioligand.” for “concentration.”

[3] = molecular target: T3, human Dopamine D2L receptor (Homo sapiens, UniProt P14416); test: In vitro binding affinity for human D2L receptor ([3H]Spiperone); settings: human D2L receptor-transfected CHO cell membranes, [3H]Spiperone; read-out: h-D2L (converted)
T3 construct: expressed in transfected cells; host or cells: CHO cells
Experimental: Frozen membranes of human Dopamine D2L receptor-transfected CHO cells were thawed, briefly homogenised using an Ultra-Turrax T25 homogeniser and diluted in Tris-HCl assay buffer containing NaCl, CaCl2, MgCl2, KCl (50, 120, 2, 1, and 5 mM respectively, adjusted to pH 7.7 with HCl) to an appropriate protein concentration optimised for specific and non-specific binding. Radioligand [^3H]Spiperone (NEN, specific activity ˜70 Ci/mmol) was diluted in assay buffer at a concentration of 2 nmol/L. Prepared radioligand (50 μl), along with 50 μl of either the 10% DMSO control, Butaclamol (10^−6 mol/l final concentration), or compound of interest, was then incubated (30 min, 37° C.) with 400 μl of the prepared membrane solution. Membrane-bound activity was filtered through a Packard Filtermate harvester onto GF/B Unifilterplates and washed with ice-cold Tris-HCl buffer (50 mM; pH 7.7; 6×0.5 ml). Filters were allowed to dry before adding scintillation fluid and counting in a Topcount scintillation counter. Percentage specific bound and competition binding curves were calculated using S-Plus software (Insightful).

NET = molecular target: T4, NET (Rattus norvegicus, UniProt Q9WTR4); test: In vitro determination of NET reuptake inhibition ([3H]Nixosetine binding, rat brain cortex); settings: rat brain cortex, [3H]Nixosetine; read-out: NET Reuptake Inhibition (converted)
T4 construct: Cortex from rat brain was collected and homogenised; from tissue; host or cells: rat brain cortex
Experimental: Cortex from rat brain was collected and homogenised using an Ultra-Turrax T25 and a Dual homogeniser in ice-cold homogenising buffer containing Tris, NaCl and KCl (50 mM, 120 mM and 5 mM, respectively, pH 7.4) prior to dilution to an appropriate protein concentration optimised for specific and non-specific binding. […] Membrane-bound activity was detected by filtration through a Packard Filtermate harvester onto GF/B Unifilterplates, washed with ice-cold Tris-HCl buffer, containing NaCl and KCl (50 mM, 120 mM and 4 mM; pH 7.4; 6×0.5 ml). Filters were allowed to dry for 24 h before adding scintillation fluid. Scintillation fluid was allowed to saturate filters for 24 h before counting in a Topcount scintillation counter. Percentage specific bound and competition binding curves were calculated using S-Plus software (Insightful).

[4] = human cloned 5-HT2C receptor, radioligand binding
[5] = human cloned 5-HT2A receptor, radioligand binding

T4 sequence (Q9WTR4 1-597): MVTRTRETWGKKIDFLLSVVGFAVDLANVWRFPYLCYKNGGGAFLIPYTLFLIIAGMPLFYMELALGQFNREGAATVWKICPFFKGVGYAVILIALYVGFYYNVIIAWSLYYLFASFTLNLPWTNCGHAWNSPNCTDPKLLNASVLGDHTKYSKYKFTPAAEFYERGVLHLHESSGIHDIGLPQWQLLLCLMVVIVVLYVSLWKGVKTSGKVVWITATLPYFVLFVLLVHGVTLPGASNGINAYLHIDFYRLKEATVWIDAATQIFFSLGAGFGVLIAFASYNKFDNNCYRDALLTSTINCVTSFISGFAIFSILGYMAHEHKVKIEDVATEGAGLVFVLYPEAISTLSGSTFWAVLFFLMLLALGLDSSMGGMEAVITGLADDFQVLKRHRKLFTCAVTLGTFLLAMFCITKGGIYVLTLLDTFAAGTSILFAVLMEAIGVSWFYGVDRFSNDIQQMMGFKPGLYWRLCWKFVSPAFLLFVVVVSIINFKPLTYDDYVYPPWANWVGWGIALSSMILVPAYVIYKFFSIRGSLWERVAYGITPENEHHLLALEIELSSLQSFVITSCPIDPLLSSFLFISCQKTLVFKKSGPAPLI
T2 sequence (P28223 whole entry): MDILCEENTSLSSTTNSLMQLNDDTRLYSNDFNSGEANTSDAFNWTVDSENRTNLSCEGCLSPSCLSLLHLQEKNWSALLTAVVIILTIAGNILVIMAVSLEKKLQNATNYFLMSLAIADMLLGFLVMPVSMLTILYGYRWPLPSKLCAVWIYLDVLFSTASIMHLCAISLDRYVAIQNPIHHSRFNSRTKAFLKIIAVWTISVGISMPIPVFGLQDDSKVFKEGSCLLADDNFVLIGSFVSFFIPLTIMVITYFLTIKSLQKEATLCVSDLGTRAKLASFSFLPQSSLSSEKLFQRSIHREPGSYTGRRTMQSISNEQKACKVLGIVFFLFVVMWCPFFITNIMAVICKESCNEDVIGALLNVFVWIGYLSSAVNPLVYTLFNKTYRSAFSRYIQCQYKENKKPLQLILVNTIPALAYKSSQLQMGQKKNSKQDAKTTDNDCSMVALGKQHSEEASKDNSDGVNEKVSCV
T3 sequence (P14416 whole entry): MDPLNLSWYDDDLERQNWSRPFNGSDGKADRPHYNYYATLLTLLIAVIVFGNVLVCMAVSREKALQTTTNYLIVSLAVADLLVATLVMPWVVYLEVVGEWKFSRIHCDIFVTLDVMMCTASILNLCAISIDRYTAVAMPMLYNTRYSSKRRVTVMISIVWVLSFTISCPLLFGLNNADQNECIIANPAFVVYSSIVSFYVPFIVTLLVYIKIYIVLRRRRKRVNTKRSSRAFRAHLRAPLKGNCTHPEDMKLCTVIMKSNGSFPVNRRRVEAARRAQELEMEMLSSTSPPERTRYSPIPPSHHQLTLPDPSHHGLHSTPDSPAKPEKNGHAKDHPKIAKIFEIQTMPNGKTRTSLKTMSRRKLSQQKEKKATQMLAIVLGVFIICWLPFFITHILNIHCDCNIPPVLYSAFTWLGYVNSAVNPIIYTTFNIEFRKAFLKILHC

SMILES | IC50 [1, 4] | IC50 [2, 5] | IC50 [3] | IC50 (NET) | IC50 ([1]; human cloned 5-HT2C receptor expressed in CHO cells, [3H]mesulergine) | IC50 ([2]; human cloned 5-HT2A receptor expressed in L929 cells, [125I]R91150)
CNC[C@@H]1CC2=C(O1)c1ccccc1[C@@H](C)c1ccccc12 (racemic) [Compound 9] | 50.1 nM | 100 nM | 3980 nM | 79.4 nM |  | 
CCNCC1CC2=C(O1)c1cc(F)ccc1Cc1ccccc12 (single isomer, unassigned) [Compound 15] | 0.794 nM |  | 39.8 nM | 3.16 nM |  | 
CCNCC1CC2=C(O1)c1cc(F)ccc1Cc1ccccc12 (single isomer, unassigned) [Compound 16] | 12.6 nM |  | 316 nM | 158 nM |  | 
CNCC1CC2=C(O1)c1cc(F)ccc1Cc1ccccc12 (stereo not shown) [Compound 2] | 1 nM | 0.631 nM | 79.4 nM | 15.8 nM |  | 
CNC[C@H]1CC2=C(O1)c1cc(F)ccc1Cc1ccccc12 [Compound 3] | 6.31 nM | 6.31 nM | 398 nM | 15.8 nM |  | 
CNC[C@@H]1CC2=C(O1)c1cc(F)ccc1Cc1ccccc12 [Compound 4] | 0.631 nM | 0.501 nM | 63.1 nM | 10 nM | 0.631 nM | 0.501 nM
CNCC1CC2=C(O1)c1ccccc1C(C)c1ccccc12 (stereo not shown) [Compound 7] | 20 nM | 50.1 nM | 2000 nM | 63.1 nM |  | 
CNCC1CC2=C(O1)c1ccccc1C(C)c1ccccc12 (stereo not shown) [Compound 10] | 25.1 nM |  | 1580 nM | 50.1 nM |  | 
C=C1c2ccccc2C2=C(OC(CNC)C2)c2ccccc21 (stereo not shown) [Compound 11] | 20 nM | 39.8 nM | 1580 nM | 25.1 nM |  | 
CNCC1CC2=C(O1)c1cc(F)ccc1Oc1ccccc12 (stereo not shown) [Compound 12] | 7.94 nM | 12.6 nM | 200 nM | 39.8 nM |  | 
CCNCC1CC2=C(O1)c1cc(Br)ccc1Cc1ccccc12 (stereo not shown) [Compound 17] | 1.26 nM |  | 25.1 nM | 100 nM |  | 
OCCNCC1CC2=C(O1)c1cc(Br)ccc1Cc1ccccc12 (stereo not shown) [Compound 20] | 1.58 nM |  | 31.6 nM | 501 nM |  | 
CN(C)CC1CC2=C(O1)c1cc(Br)ccc1Cc1ccccc12 (stereo not shown) [Compound 21] | 0.794 nM |  | 15.8 nM | 251 nM |  | 
CN(C)CC1CC2=C(O1)c1ccccc1N(C)c1ccccc12 (stereo not shown) [Compound 29] | 126 nM | 316 nM | 6310 nM | 79.4 nM |  | 
CN(C)C1CCN(CC2CC3=C(O2)c2cc(F)ccc2Cc2ccccc23)C1 (stereo not shown) [Compound 35] | 15.8 nM |  | 39.8 nM | > 10000 nM |  | 
Fc1ccc2c(c1)C1=C(CC(CN3CCC4(CC3)OCCO4)O1)c1ccccc1C2 (stereo not shown) [Compound 39] | 50.1 nM |  | 50.1 nM | > 10000 nM |  | 
Fc1ccc2c(c1)C1=C(CC(CN3CCOCC3)O1)c1ccccc1C2 (stereo not shown) [Compound 43] | 20 nM |  | 79.4 nM | 1580 nM |  | 
CS(=O)(=O)N1CCN(CC2CC3=C(O2)c2cc(F)ccc2Cc2ccccc23)CC1 (stereo not shown) [Compound 44] | 50.1 nM |  | 158 nM | > 10000 nM |  | 
CCS(=O)(=O)N1CCN(CC2CC3=C(O2)c2cc(F)ccc2Cc2ccccc23)CC1 (stereo not shown) [Compound 46] | 200 nM |  | 501 nM | > 10000 nM |  | 
